Data: PubChem BioAssay (NCI)
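At the GI50, growth is halved. TGI denotes the concentration required for complete inhibition of growth.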

How the values were obtained:
Assay in all cases: NCI tumour cell line growth inhibition, 384-well format
786-0 renal = tested on: 786-0 renal
A498 renal = tested on: A498 renal
A549 NSCLC = tested on: A549 NSCLC
ACHN renal = tested on: ACHN renal
BT-549 breast = tested on: BT-549 breast
CAKI-1 renal = tested on: CAKI-1 renal
CCRF-CEM leukemia = tested on: CCRF-CEM leukemia
COLO 205 colon = tested on: COLO 205 colon
DU-145 prostate = tested on: DU-145 prostate
EKVX NSCLC = tested on: EKVX NSCLC
HCC-2998 colon = tested on: HCC-2998 colon
HCT-116 colon = tested on: HCT-116 colon
HCT-15 colon = tested on: HCT-15 colon
HL-60(TB) leukemia = tested on: HL-60(TB) leukemia
HOP-62 NSCLC = tested on: HOP-62 NSCLC
HOP-92 NSCLC = tested on: HOP-92 NSCLC
HS 578T breast = tested on: HS 578T breast
HT29 colon = tested on: HT29 colon
IGROV1 ovarian = tested on: IGROV1 ovarian
K-562 leukemia = tested on: K-562 leukemia
KM12 colon = tested on: KM12 colon
LOX IMVI melanoma = tested on: LOX IMVI melanoma
M14 melanoma = tested on: M14 melanoma
MALME-3M melanoma = tested on: MALME-3M melanoma
MCF7 breast = tested on: MCF7 breast
MDA-MB-231 breast = tested on: MDA-MB-231 breast
MDA-MB-435 melanoma = tested on: MDA-MB-435 melanoma
MDA-MB-468 breast = tested on: MDA-MB-468 breast
MOLT-4 leukemia = tested on: MOLT-4 leukemia
NCI-H226 lung = tested on: NCI-H226 lung
NCI-H23 lung = tested on: NCI-H23 lung
NCI-H322M lung = tested on: NCI-H322M lung
NCI-H460 NSCLC = tested on: NCI-H460 NSCLC
NCI-H522 lung = tested on: NCI-H522 lung
NCI/ADR-RES ovarian = tested on: NCI/ADR-RES ovarian
OVCAR-3 ovarian = tested on: OVCAR-3 ovarian
OVCAR-4 ovarian = tested on: OVCAR-4 ovarian
OVCAR-5 ovarian = tested on: OVCAR-5 ovarian
PC-3 prostate = tested on: PC-3 prostate
RPMI-8226 leukemia = tested on: RPMI-8226 leukemia
RXF 393 renal = tested on: RXF 393 renal
SF-268 CNS = tested on: SF-268 CNS
SF-295 CNS = tested on: SF-295 CNS
SF-539 CNS = tested on: SF-539 CNS
SK-MEL-2 melanoma = tested on: SK-MEL-2 melanoma
SK-MEL-28 melanoma = tested on: SK-MEL-28 melanoma
SK-MEL-5 melanoma = tested on: SK-MEL-5 melanoma
SK-OV-3 ovarian = tested on: SK-OV-3 ovarian
SN12C renal = tested on: SN12C renal
SNB-19 CNS = tested on: SNB-19 CNS
SNB-75 CNS = tested on: SNB-75 CNS
SR leukemia = tested on: SR leukemia
SW-620 colon = tested on: SW-620 colon
T-47D breast = tested on: T-47D breast
TK-10 renal = tested on: TK-10 renal
U251 glioblastoma = tested on: U251 glioblastoma
UACC-257 melanoma = tested on: UACC-257 melanoma
UACC-62 melanoma = tested on: UACC-62 melanoma
UO-31 renal = tested on: UO-31 renal
OVCAR-8 ovarian = tested on: OVCAR-8 ovarian

## C[C@@H](N)C1CCC(C(=O)Nc2ccncc2)CC1 (stereo partly specified)
786-0 renal
  GI50: > 100 µM
  TGI: > 100 µM
A498 renal
  GI50: > 100 µM
  TGI: > 100 µM
A549 NSCLC
  GI50: > 100 µM
  TGI: > 100 µM
ACHN renal
  GI50: > 100 µM
  TGI: > 100 µM
BT-549 breast
  GI50: 25.9 µM
  TGI: > 100 µM
CAKI-1 renal
  GI50: > 100 µM
  TGI: > 100 µM
CCRF-CEM leukemia
  GI50: > 100 µM
  TGI: > 100 µM
COLO 205 colon
  GI50: > 100 µM
  TGI: > 100 µM
DU-145 prostate
  GI50: > 100 µM
  TGI: > 100 µM
EKVX NSCLC
  GI50: > 100 µM
  TGI: > 100 µM
HCC-2998 colon
  GI50: 85.3 µM
  TGI: > 100 µM
HCT-116 colon
  GI50: > 100 µM
  TGI: > 100 µM
HCT-15 colon
  GI50: > 100 µM
  TGI: > 100 µM
HL-60(TB) leukemia
  GI50: 64 µM
  TGI: > 100 µM
HOP-62 NSCLC
  GI50: 77.4 µM
  TGI: > 100 µM
HOP-92 NSCLC
  GI50: 75.8 µM
  TGI: > 100 µM
HS 578T breast
  GI50: 38.5 µM
  TGI: > 100 µM
HT29 colon
  GI50: 68.4 µM
  TGI: > 100 µM
IGROV1 ovarian
  GI50: 80 µM
  TGI: > 100 µM
K-562 leukemia
  GI50: 39.9 µM
  TGI: > 100 µM
KM12 colon
  GI50: > 100 µM
  TGI: > 100 µM
LOX IMVI melanoma
  GI50: > 100 µM
  TGI: > 100 µM
M14 melanoma
  GI50: > 100 µM
  TGI: > 100 µM
MALME-3M melanoma
  GI50: > 100 µM
  TGI: > 100 µM
MCF7 breast
  GI50: 60.3 µM
  TGI: > 100 µM
MDA-MB-231 breast
  GI50: > 100 µM
  TGI: > 100 µM
MDA-MB-435 melanoma
  GI50: > 100 µM
  TGI: > 100 µM
MDA-MB-468 breast
  GI50: 31 µM
  TGI: > 100 µM
MOLT-4 leukemia
  GI50: 50.7 µM
  TGI: > 100 µM
NCI-H226 lung
  GI50: > 100 µM
  TGI: > 100 µM
NCI-H23 lung
  GI50: > 100 µM
  TGI: > 100 µM
NCI-H322M lung
  GI50: > 100 µM
  TGI: > 100 µM
NCI-H460 NSCLC
  GI50: > 100 µM
  TGI: > 100 µM
NCI-H522 lung
  GI50: > 100 µM
  TGI: > 100 µM
NCI/ADR-RES ovarian
  GI50: > 100 µM
  TGI: > 100 µM
OVCAR-3 ovarian
  GI50: > 100 µM
  TGI: > 100 µM
OVCAR-4 ovarian
  GI50: > 100 µM
  TGI: > 100 µM
OVCAR-5 ovarian
  GI50: > 100 µM
  TGI: > 100 µM
PC-3 prostate
  GI50: > 100 µM
  TGI: > 100 µM
RPMI-8226 leukemia
  GI50: 88.4 µM
  TGI: > 100 µM
RXF 393 renal
  GI50: 40.9 µM
  TGI: > 100 µM
SF-268 CNS
  GI50: 69.7 µM
  TGI: > 100 µM
SF-295 CNS
  GI50: 77.8 µM
  TGI: > 100 µM
SF-539 CNS
  GI50: > 100 µM
  TGI: > 100 µM
SK-MEL-2 melanoma
  GI50: > 100 µM
  TGI: > 100 µM
SK-MEL-28 melanoma
  GI50: > 100 µM
  TGI: > 100 µM
SK-MEL-5 melanoma
  GI50: > 100 µM
  TGI: > 100 µM
SK-OV-3 ovarian
  GI50: > 100 µM
  TGI: > 100 µM
SN12C renal
  GI50: > 100 µM
  TGI: > 100 µM
SNB-19 CNS
  GI50: > 100 µM
  TGI: > 100 µM
SNB-75 CNS
  GI50: 55.9 µM
  TGI: > 100 µM
SR leukemia
  GI50: 7.94 µM
  TGI: 21.9 µM
SW-620 colon
  GI50: 92 µM
  TGI: > 100 µM
T-47D breast
  GI50: 99.3 µM
  TGI: > 100 µM
TK-10 renal
  GI50: > 100 µM
  TGI: > 100 µM
U251 glioblastoma
  GI50: 87.8 µM
  TGI: > 100 µM
UACC-257 melanoma
  GI50: > 100 µM
  TGI: > 100 µM
UACC-62 melanoma
  GI50: > 100 µM
  TGI: > 100 µM
UO-31 renal
  GI50: > 100 µM
  TGI: > 100 µM

## Cc1cc(C(=O)Nc2nc3cccc(Cl)c3n2[C@@H]2CCCCN(C(=O)/C=C/CN(C)C)C2)ccn1
786-0 renal
  GI50: 2.98 µM
  TGI: 13.1 µM
A498 renal
  GI50: 1.45 µM
  TGI: 10.8 µM
A549 NSCLC
  GI50: 2.49 µM
  TGI: 13.6 µM
ACHN renal
  GI50: 1.48 µM
  TGI: 12.5 µM
BT-549 breast
  GI50: 2.66 µM
  TGI: 9.69 µM
CAKI-1 renal
  GI50: 1.44 µM
  TGI: 14.8 µM
CCRF-CEM leukemia
  GI50: 1.56 µM
  TGI: 2.98 µM
COLO 205 colon
  GI50: 4.23 µM
  TGI: 15.6 µM
DU-145 prostate
  GI50: 2.34 µM
  TGI: 13.6 µM
EKVX NSCLC
  GI50: 0.648 µM
  TGI: 3.73 µM
HCC-2998 colon
  GI50: 2.44 µM
  TGI: 6.43 µM
HCT-116 colon
  GI50: 3.17 µM
  TGI: 10.9 µM
HCT-15 colon
  GI50: 2.73 µM
  TGI: 10.7 µM
HL-60(TB) leukemia
  GI50: 1.49 µM
  TGI: 2.82 µM
HOP-62 NSCLC
  GI50: 1.93 µM
  TGI: 5.59 µM
HOP-92 NSCLC
  GI50: 2.93 µM
  TGI: 13.9 µM
HS 578T breast
  GI50: 1.62 µM
  TGI: 6.37 µM
HT29 colon
  GI50: 4.41 µM
  TGI: 16.1 µM
IGROV1 ovarian
  GI50: 0.697 µM
  TGI: 2.79 µM
K-562 leukemia
  GI50: 3.03 µM
  TGI: 12.4 µM
KM12 colon
  GI50: 3.36 µM
  TGI: 12.5 µM
LOX IMVI melanoma
  GI50: 2.24 µM
  TGI: 5.51 µM
M14 melanoma
  GI50: 2.75 µM
  TGI: 11.5 µM
MALME-3M melanoma
  GI50: 2.76 µM
  TGI: 10.8 µM
MCF7 breast
  GI50: 2.51 µM
  TGI: 11.3 µM
MDA-MB-231 breast
  GI50: 4.34 µM
  TGI: 17 µM
MDA-MB-435 melanoma
  GI50: 3.35 µM
  TGI: 12.3 µM
MDA-MB-468 breast
  GI50: 0.111 µM
  TGI: 0.507 µM
MOLT-4 leukemia
  GI50: 1.4 µM
  TGI: 2.72 µM
NCI-H226 lung
  GI50: 3.39 µM
  TGI: 15.9 µM
NCI-H23 lung
  GI50: 2.83 µM
  TGI: 10.5 µM
NCI-H322M lung
  GI50: 0.367 µM
  TGI: 10.1 µM
NCI-H460 NSCLC
  GI50: 2.99 µM
  TGI: 10.6 µM
NCI-H522 lung
  GI50: 0.12 µM
  TGI: 2.07 µM
NCI/ADR-RES ovarian
  GI50: 2.3 µM
  TGI: 9.63 µM
OVCAR-3 ovarian
  GI50: 1.46 µM
  TGI: 4.15 µM
OVCAR-4 ovarian
  GI50: 3.56 µM
  TGI: 14.7 µM
OVCAR-5 ovarian
  GI50: 3.08 µM
  TGI: 14.2 µM
OVCAR-8 ovarian
  GI50: 3.15 µM
  TGI: 13.7 µM
PC-3 prostate
  GI50: 3.45 µM
  TGI: 14.3 µM
RPMI-8226 leukemia
  GI50: 1.4 µM
  TGI: 3.77 µM
RXF 393 renal
  GI50: 4.04 µM
  TGI: 15.3 µM
SF-268 CNS
  GI50: 3.02 µM
  TGI: 14 µM
SF-295 CNS
  GI50: 4.09 µM
  TGI: 14.5 µM
SF-539 CNS
  GI50: 3.23 µM
  TGI: 11 µM
SK-MEL-2 melanoma
  GI50: 2.43 µM
  TGI: 7.52 µM
SK-MEL-28 melanoma
  GI50: 7.02 µM
  TGI: 20.1 µM
SK-MEL-5 melanoma
  GI50: 1.71 µM
  TGI: 4.83 µM
SK-OV-3 ovarian
  GI50: 0.928 µM
  TGI: 10.2 µM
SN12C renal
  GI50: 1.79 µM
  TGI: 13.9 µM
SNB-19 CNS
  GI50: 3.49 µM
  TGI: 14.9 µM
SNB-75 CNS
  GI50: 5.5 µM
  TGI: 17.9 µM
SW-620 colon
  GI50: 2.93 µM
  TGI: 8.65 µM
T-47D breast
  GI50: 2.65 µM
  TGI: 17.3 µM
TK-10 renal
  GI50: 0.494 µM
  TGI: 7.41 µM
U251 glioblastoma
  GI50: 2.61 µM
  TGI: 8.17 µM
UACC-257 melanoma
  GI50: 2.56 µM
  TGI: 8.75 µM
UACC-62 melanoma
  GI50: 3.62 µM
  TGI: 14.1 µM
UO-31 renal
  GI50: 2.05 µM
  TGI: 12.9 µM
